The source made the active and inactive calls. No cut-off for these calls is given here.
What was measured:
[1] = target: T1, Tyrosine-protein phosphatase non-receptor type 22 (Homo sapiens, UniProt Q9Y2R2)
T1 sequence (Q9Y2R2 whole entry): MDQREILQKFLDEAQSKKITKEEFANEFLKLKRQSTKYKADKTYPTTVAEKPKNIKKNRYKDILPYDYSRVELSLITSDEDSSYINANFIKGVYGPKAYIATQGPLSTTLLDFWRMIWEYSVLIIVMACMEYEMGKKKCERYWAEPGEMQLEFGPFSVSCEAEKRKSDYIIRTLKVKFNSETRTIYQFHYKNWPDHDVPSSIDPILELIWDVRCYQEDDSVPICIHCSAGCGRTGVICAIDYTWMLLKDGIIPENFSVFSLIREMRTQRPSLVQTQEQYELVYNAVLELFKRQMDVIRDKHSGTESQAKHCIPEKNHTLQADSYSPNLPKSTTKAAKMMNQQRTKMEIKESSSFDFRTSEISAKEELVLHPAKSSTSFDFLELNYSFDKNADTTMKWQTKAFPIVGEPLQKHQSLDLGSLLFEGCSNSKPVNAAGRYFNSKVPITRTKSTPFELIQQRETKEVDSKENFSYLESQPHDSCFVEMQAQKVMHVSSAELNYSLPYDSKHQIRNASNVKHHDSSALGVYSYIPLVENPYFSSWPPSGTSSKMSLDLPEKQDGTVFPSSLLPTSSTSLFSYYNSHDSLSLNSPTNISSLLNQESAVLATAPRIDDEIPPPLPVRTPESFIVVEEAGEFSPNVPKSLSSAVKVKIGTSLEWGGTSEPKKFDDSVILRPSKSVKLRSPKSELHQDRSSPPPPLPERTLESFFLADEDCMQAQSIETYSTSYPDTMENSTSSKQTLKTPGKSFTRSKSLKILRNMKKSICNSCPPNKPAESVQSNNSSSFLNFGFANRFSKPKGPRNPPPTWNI
Description: Inhibition of LYP expressed in Escherichia coli BL21 using pNPP substrate

[2] = target: T2, Low molecular weight phosphotyrosine protein phosphatase (Homo sapiens, UniProt P24666)
T2 sequence (P24666 whole entry): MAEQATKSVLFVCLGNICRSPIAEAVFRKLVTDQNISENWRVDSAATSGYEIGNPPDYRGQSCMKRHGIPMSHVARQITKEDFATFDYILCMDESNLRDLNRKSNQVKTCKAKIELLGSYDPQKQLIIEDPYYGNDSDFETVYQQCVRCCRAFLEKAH
Description: Inhibition of LMPTP-A expressed in Escherichia coli BL21 using pNPP substrate

[3] = target: T3, Tyrosine-protein phosphatase non-receptor type 12 (Homo sapiens, UniProt Q05209)
T3 sequence (Q05209 whole entry): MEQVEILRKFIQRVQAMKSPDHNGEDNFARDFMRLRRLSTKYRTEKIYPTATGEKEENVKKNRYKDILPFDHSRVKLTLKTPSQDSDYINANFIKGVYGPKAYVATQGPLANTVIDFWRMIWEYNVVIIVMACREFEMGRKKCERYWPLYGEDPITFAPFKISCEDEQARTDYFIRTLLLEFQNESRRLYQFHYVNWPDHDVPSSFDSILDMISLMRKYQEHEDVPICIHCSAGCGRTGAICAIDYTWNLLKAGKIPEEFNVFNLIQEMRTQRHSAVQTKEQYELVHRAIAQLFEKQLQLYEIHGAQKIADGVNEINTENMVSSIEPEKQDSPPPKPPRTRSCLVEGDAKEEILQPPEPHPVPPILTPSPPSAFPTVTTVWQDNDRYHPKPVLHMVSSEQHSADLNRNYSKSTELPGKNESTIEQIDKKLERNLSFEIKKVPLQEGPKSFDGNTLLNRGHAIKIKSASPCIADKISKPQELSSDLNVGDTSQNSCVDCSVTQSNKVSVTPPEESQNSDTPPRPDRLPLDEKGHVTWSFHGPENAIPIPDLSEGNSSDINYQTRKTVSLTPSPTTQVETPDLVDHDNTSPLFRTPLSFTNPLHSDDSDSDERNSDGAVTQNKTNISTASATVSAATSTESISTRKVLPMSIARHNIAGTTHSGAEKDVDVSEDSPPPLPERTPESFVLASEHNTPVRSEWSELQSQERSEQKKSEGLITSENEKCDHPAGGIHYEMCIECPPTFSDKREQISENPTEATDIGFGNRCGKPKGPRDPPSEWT
Description: Inhibition of PTP-PEST expressed in Escherichia coli BL21 using pNPP substrate

[4] = target: T4, Tyrosine-protein phosphatase non-receptor type 7 (Homo sapiens, UniProt P35236)
T4 sequence (P35236 whole entry): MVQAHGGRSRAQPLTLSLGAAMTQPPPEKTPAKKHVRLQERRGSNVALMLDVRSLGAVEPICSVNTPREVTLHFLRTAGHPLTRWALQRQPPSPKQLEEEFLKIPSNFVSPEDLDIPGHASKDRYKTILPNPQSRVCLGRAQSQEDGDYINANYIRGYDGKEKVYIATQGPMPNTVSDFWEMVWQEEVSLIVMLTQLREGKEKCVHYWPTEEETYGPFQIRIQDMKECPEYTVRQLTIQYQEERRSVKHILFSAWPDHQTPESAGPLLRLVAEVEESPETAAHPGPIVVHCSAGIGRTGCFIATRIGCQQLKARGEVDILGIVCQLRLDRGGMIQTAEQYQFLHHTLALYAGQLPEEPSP
Description: Inhibition of HePTP expressed in Escherichia coli BL21 using pNPP substrate

[5] = target: T5, Tyrosine-protein phosphatase non-receptor type 22 (Mus musculus) (UniProt P29352); test: Inhibition of LYP in anti-CD3 and antiCD28 antibody-stimulated C57BL/6 mouse CD8+ splenocytes assessed as increase in TCR signaling-stimulated CD69 expression at 50 uM incubated for 24 hrs (reference value: 5.3%); parameters: scale not given: the % may be the effect or the level left
T5 sequence (whole entry): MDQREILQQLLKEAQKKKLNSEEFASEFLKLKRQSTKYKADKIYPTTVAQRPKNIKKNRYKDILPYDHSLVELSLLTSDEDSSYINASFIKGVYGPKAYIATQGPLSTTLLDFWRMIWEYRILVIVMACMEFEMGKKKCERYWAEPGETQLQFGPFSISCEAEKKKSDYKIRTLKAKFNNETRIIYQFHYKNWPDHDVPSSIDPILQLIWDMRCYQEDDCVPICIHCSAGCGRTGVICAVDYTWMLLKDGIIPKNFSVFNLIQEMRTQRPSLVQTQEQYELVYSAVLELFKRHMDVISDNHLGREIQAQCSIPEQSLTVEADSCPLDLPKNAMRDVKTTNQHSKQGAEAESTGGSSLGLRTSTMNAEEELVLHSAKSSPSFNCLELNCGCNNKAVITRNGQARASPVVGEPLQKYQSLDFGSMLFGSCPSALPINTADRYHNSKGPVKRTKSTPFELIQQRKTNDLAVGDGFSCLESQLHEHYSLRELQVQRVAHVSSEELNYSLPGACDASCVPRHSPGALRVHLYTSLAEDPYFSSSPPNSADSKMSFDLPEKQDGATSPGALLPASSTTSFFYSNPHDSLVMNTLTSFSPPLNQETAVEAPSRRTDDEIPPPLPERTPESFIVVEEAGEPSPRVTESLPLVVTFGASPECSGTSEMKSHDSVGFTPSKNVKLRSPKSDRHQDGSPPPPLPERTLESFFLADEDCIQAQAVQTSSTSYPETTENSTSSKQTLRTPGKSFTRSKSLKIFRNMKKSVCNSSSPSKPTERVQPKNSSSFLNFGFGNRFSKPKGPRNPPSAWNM

[6] = target: T5, Tyrosine-protein phosphatase non-receptor type 22 (Mus musculus); test: Inhibition of LYP in anti-CD3 and antiCD28 antibody-stimulated C57BL/6 mouse CD4+ splenocytes assessed as increase in TCR signaling-stimulated CD69 expression at 100 uM incubated for 24 hrs (reference value: 29.2%); parameters: scale not given: the % may be the effect or the level left
[7] = target: T5, Tyrosine-protein phosphatase non-receptor type 22 (Mus musculus); test: Inhibition of LYP in anti-CD3 and antiCD28 antibody-stimulated C57BL/6 mouse CD4+ splenocytes assessed as increase in TCR signaling-stimulated CD69 expression at 50 uM incubated for 24 hrs (reference value: 29.2%); parameters: scale not given: the % may be the effect or the level left
[8] = target: T5, Tyrosine-protein phosphatase non-receptor type 22 (Mus musculus); test: Inhibition of LYP in anti-CD3 and antiCD28 antibody-stimulated C57BL/6 mouse CD8+ splenocytes assessed as increase in TCR signaling-stimulated CD69 expression at 100 uM incubated for 24 hrs (reference value: 5.3%); parameters: scale not given: the % may be the effect or the level left
[9] = Inhibition of TCR signaling in anti-CD3 and anti-CD4 antibody stimulated mouse Ptpn22-/- T cells assessed as increase in Lck Y394 phosphorylation at 50 uM by Western blotting; details: T-cell
[10] = target: T5, Tyrosine-protein phosphatase non-receptor type 22 (Mus musculus); test: Inhibition of LYP-mediated TCR signaling in anti-CD3 and anti-CD4 antibody stimulated mouse Ptpn22+/+ T cells assessed as increase in Lck Y394 phosphorylation at 50 uM by Western blotting; details: T-cell
[11] = target: T1, Tyrosine-protein phosphatase non-receptor type 22; remark: listed apart in the source
[12] = target: T1, Tyrosine-protein phosphatase non-receptor type 22; remark: listed apart in the source
Description: Inhibition of LYP expressed in Escherichia coli BL21 using increasing levels of ARLIED-NEpYTAREG substrate

Cc1ccc2[nH]c(=O)c(C(c3nnnn3C3CCCC3)N3CCN(C4CCCCC4)CC3)cc2c1 (centres undefined)
IC50 [1]: > 40 µM

COc1ccc(N2CCN(C(c3cc4cc(C)ccc4[nH]c3=O)c3nnnn3C3CCCC3)CC2)cc1 (centres undefined)
IC50 [1]: 31.5 µM

Cc1ccc2[nH]c(=O)c(C(c3nnnn3C3CCCC3)N3CCN(c4ccc(F)cc4)CC3)cc2c1 (centres undefined)
IC50 [1]: 30.5 µM

Cc1ccc2[nH]c(=O)c(C(c3nnnn3C3CCCC3)N3CCC(C)CC3)cc2c1 (centres undefined)
IC50 [1]: 20.6 µM

Cc1ccc2[nH]c(=O)c(C(c3nnnn3C(C)C)N3CCCC4(CCCCC4)C3)cc2c1 (centres undefined)
IC50 [1]: 21.2 µM

COc1ccccc1N1CCN(C(c2cc3cc(C)ccc3nc2O)c2nnnn2C2CCCC2)CC1 (centres undefined)
IC50 [1]: > 40 µM

CCN1CCN(C(c2cc3cc(C)ccc3[nH]c2=O)c2nnnn2C2CCCC2)CC1 (centres undefined)
IC50 [1]: > 40 µM

CCOc1ccc(NC(=O)CSc2nc3c(C)cc(C)cc3cc2C#N)cc1
IC50 [2]: > 90 µM | IC50 [3]: 16 µM | IC50 [1]: 28.1 µM | IC50 [4]: 16 µM

COc1ccc(-n2ncc3c(SCC(=O)N4c5ccccc5CC4C)ncnc32)cc1 (centres undefined)
IC50 [2]: > 90 µM | IC50 [3]: > 40 µM

Cc1ccc2[nH]c(=O)c(C(c3nnnn3C3CCCC3)N3CCN(c4ccc(O)cc4)CC3)cc2c1 (centres undefined)
IC50 [1]: > 40 µM

Cc1cccc2cc(C#N)c(SCC(=O)Nc3cccc(Cl)c3)nc12
IC50 [2]: > 90 µM | IC50 [3]: 28 µM | IC50 [1]: 27.2 µM | IC50 [4]: 22 µM

Cc1ccc2cc(C#N)c(SCC(=O)Nc3ccc4c(c3)OCO4)nc2c1
IC50 [2]: > 90 µM | IC50 [3]: 36 µM | IC50 [1]: 23.3 µM | IC50 [4]: 12 µM

Cc1ccc(NC(=O)CSc2nc3c(C)c(C)ccc3cc2C#N)cc1C
IC50 [2]: 53.3 µM | IC50 [3]: 27.5 µM | IC50 [1]: 26.6 µM | IC50 [4]: 20 µM

Cc1ccc2[nH]c(=O)c(C(c3nnnn3-c3ccccc3)N3CCCC4(CCCCC4)C3)cc2c1 (centres undefined)
IC50 [1]: 11.2 µM

Cc1ccc2[nH]c(=O)c(C(c3nnnn3C3CCCC3)N3CCN(C)CC3)cc2c1 (centres undefined)
IC50 [1]: > 40 µM

Cc1ccc2[nH]c(=O)c(C(c3nnnn3C3CCCC3)N3CCN(c4ccccc4)CC3)cc2c1 (centres undefined)
IC50 [1]: 30.7 µM

Cc1ccc2[nH]c(=O)c(C(c3nnnn3C3CCCC3)N3CCCC4(CCCCC4)C3)cc2c1 (centres undefined)
Activity [5]: 12.1% | Activity [6]: 38.9% | Activity [7]: 36.8% | Activity [8]: 13.7% | inhibition [9]: inactive | inhibition [10]: Active

Cc1ccc2sc(NC(=O)c3sc4ccccc4c3Cl)nc2c1
IC50 [2]: > 90 µM | IC50 [3]: 14 µM | IC50 [1]: 29.5 µM | IC50 [4]: 8 µM

Cc1ccc2[nH]c(=O)c(C(c3nnnn3C3CCCC3)N3CCN(C(c4ccccc4)c4ccccc4)CC3)cc2c1 (centres undefined)
Ki [11]: 21.3 µM | Ki [12]: 11 µM

COc1ccc2cc(C#N)c(SCC(=O)Nc3cccc(C)c3C)nc2c1
IC50 [2]: 60.9 µM | IC50 [3]: 18 µM | IC50 [1]: 30.5 µM | IC50 [4]: 15 µM

Cc1ccc2[nH]c(=O)c(C(c3nnnn3C3CCCC3)N3CCN(c4nc5ccccc5s4)CC3)cc2c1 (centres undefined)
IC50 [1]: 30 µM

Cc1ccc2[nH]c(=O)c(C(c3nnnn3C3CCCC3)N(Cc3ccccc3)Cc3ccccc3)cc2c1 (centres undefined)
IC50 [1]: 13.3 µM

Cc1ccc2[nH]c(=O)c(C(c3nnnn3C3CCCC3)N3CCN(Cc4ccccc4)CC3)cc2c1 (centres undefined)
IC50 [1]: > 40 µM

Cc1ccc2cc(C#N)c(SCC(=O)NC3CCCCC3)nc2c1C
IC50 [2]: 45.3 µM | IC50 [3]: 21 µM | IC50 [1]: 19.8 µM | IC50 [4]: 8 µM

Cc1ccc2[nH]c(=O)c(C(c3nnnn3C3CCCC3)N3CCCCC3)cc2c1 (centres undefined)
IC50 [1]: 30.9 µM | IC50 [4]: > 75 µM

Reference: ChEMBL document CHEMBL2157931, “Discovery of a novel series of inhibitors of lymphoid tyrosine phosphatase with activity in human T cells” (J Med Chem, 2011)
